Values quoted from earlier work in patent US5681581A, “Controlled release pharmaceutical formulations of 3'-azido-3'-deoxythymidine and methods of use” (priority 1995, dated 1997).
Entries after “also recorded” stand apart in the source; their conditions may differ.

Legend:
[1] = system: HIV; settings: result in words
[2] = system: reverse transcriptase; settings: result in words
[3] = system: cells of HIV infected patients; settings: HIV infected patients taking AZT
[4] = animals
[5] = capsules and liquid solutions, oral
[6] = system: HIV
[7] = system: DNA polymerase; settings: result in words
[8] = system: bone marrow cells; settings: than AZT
[9] = intravenous AZT 2.5 mg/kg, patients
[10] = result in words

Structure (SMILES): Cc1cn([C@H]2C[C@H](N=[N+]=[N-])[C@@H](COP(=O)(O)OP(=O)(O)OP(=O)(O)O)O2)c(=O)[nH]c1=O [triphosphate form]
- inhibitory effect on viral transcription [1]: most inhibitory effect

Structure (SMILES): Cc1cn([C@H]2C[C@H](N=[N+]=[N-])[C@@H](CO)O2)c(=O)[nH]c1=O [AZT, 3'-azido-3'-deoxythymidine]
- inhibition of reverse transcriptase [2]: inhibitor of reverse transcriptase
- relationship between phosphorylated AZT and dosage or blood levels [3]: showed no relationship
- AMT levels by oral route [4]: higher levels of AMT
- absorption from the gastrointestinal tract [5]: rapidly absorbed
- effectiveness in asymptomatic sero-positive patients ([6]; 1500 mg per day): not as effective as 500 mg per day
- toxicity of dose ([6]; human, in vivo): too toxic

Structure (SMILES): Cc1cn([C@H]2C[C@H](N)[C@@H](COP(=O)(O)OP(=O)(O)OP(=O)(O)O)O2)c(=O)[nH]c1=O [AMT 5'triphosphate]
- inhibition of reverse transcriptase [2]: inhibitor of HIV reverse transcriptase
- inhibition of DNA polymerase [7]: inhibitor of DNA polymerase

Structure (SMILES): Cc1cn([C@H]2C[C@H](N)[C@@H](CO)O2)c(=O)[nH]c1=O [AMT, 3'-amino-3'-deoxythymidine]
- toxicity to bone marrow cells relative to AZT [8]: 5-7 times more toxic
- AMT level relative to AZT by AUC [9]: about twenty
- binding of the reverse transcriptase enzyme [2]: competitive binding
- antiviral activity [1]: no antiviral activity; also recorded: poor antiviral activity
- effect on the anti-HIV action of AZT [1]: antagonistic effect
- anti-cancer effects [10]: potent anti-cancer effects
